Assay results: ChEMBL document CHEMBL4425121, “Discovery of Substituted 1H-Pyrazolo[3,4-b]pyridine Derivatives as Potent and Selective FGFR Kinase Inhibitors” (ACS Med Chem Lett, 2016)
pIC50: −log10 of the molar value. Blank lines part the entries; values can stand above or below the molecule they belong to.

How the values were obtained:
[1] = target: Fibroblast growth factor receptor 1 (Homo sapiens, UniProt P11362); assay: Inhibition of recombinant human FGFR1 using poly (Glu,Tyr)4:1 as substrate incubated for 60 mins by ELISA
[2] = system: NCI-H1581; assay: Antiproliferative activity against human NCI-H1581 cells after 72 hrs by CCK-8 assay; type: functional, cell-based; conditions: NCI-H1581, 72 h
[3] = target: T1, Vascular endothelial growth factor receptor 2 (Homo sapiens, UniProt P35968); assay: Inhibition of VEGFR2 (unknown origin) overexpressed in mouse NIH/ 3T3 cells incubated for 5 mins followed by stimulation with VEGF for 5 mins by immunoblotting analysis; type: cell-based
[4] = AUC(0 to infinity) in ICR mouse at 12.5 mg/kg administered as oral gavage by LC-MS/MS analysis; type: ADME, organism-based; design: dose 12.5 mg/kg, route oral, time infinity; conditions: in vivo
[5] = system: RT-112; assay: Antiproliferative activity against human RT112 cells after 72 hrs by CCK-8 assay; type: functional, cell-based; conditions: RT-112, 72 h
[6] = Oral bioavailability in ICR mouse at 12.5 mg/kg administered as gavage by LC-MS/MS analysis; type: ADME, organism-based; conditions: in vivo
[7] = target: Fibroblast growth factor receptor 2 (Homo sapiens, UniProt P21802)
Description: Inhibition of human FGFR2 using poly (Glu,Tyr)4:1 as substrate incubated for 60 mins by ELISA

[8] = Clearance in ICR mouse at 2 mg/kg, iv by LC-MS/MS analysis; type: ADME, organism-based; conditions: in vivo
[9] = Toxicity in nude mouse xenografted with human NCI-H1581 cells assessed as body weight loss at 50 mg/kg, po qd administered for 21 days; type: organism-based; conditions: in vivo, 504 h
[10] = Cmax in ICR mouse at 2 mg/kg, iv by LC-MS/MS analysis; type: ADME, organism-based; design: dose 2 mg/kg, route intravenous; conditions: in vivo
[11] = system: KG-1; assay: Antiproliferative activity against human KG1 cells after 72 hrs by CCK-8 assay; type: functional, cell-based; conditions: KG-1, 72 h
[12] = system: SNU-16; assay: Antiproliferative activity against human SNU16 cells after 72 hrs by CCK-8 assay; type: functional, cell-based; conditions: SNU-16, 72 h
[13] = Half life in ICR mouse at 2 mg/kg, iv by LC-MS/MS analysis; type: ADME, organism-based; conditions: in vivo
[14] = system: NCI-H1581; assay: Antitumor activity against human NCI-H1581 cells xenografted in nude mouse assessed as tumor growth inhibition at 12.5 mg/kg, po qd administered for 21 days; type: functional; conditions: 504 h, read-out: TGI
[15] = Half life in ICR mouse at 12.5 mg/kg administered as oral gavage by LC-MS/MS analysis; type: ADME, organism-based; conditions: in vivo
[16] = Cmax in ICR mouse at 12.5 mg/kg administered as oral gavage by LC-MS/MS analysis; type: ADME, organism-based; design: dose 12.5 mg/kg, route oral; conditions: in vivo
[17] = system: NCI-H1581; assay: Antitumor activity against human NCI-H1581 cells xenografted in nude mouse assessed as tumor growth inhibition at 50 mg/kg, po qd administered for 21 days; type: functional; conditions: 504 h, read-out: TGI
[18] = system: NCI-H1581; conditions: Homo sapiens
Description: Antitumor activity against human NCI-H1581 cells xenografted in nude mouse assessed as tumor growth inhibition administered orally qd for 21 days

[19] = AUC(0 to infinity) in ICR mouse at 2 mg/kg, iv by LC-MS/MS analysis; type: ADME, organism-based; design: dose 2 mg/kg, time infinity, route intravenous; conditions: in vivo
[20] = Protein binding in mouse plasma at 5 uM after 4 hrs by equilibrium dialysis assay; type: ADME, cell-free; conditions: read-out: PPB (converted)
[21] = Toxicity in nude mouse xenografted with human NCI-H1581 cells assessed as body weight loss at 12.5 mg/kg, po qd administered for 21 days; type: organism-based; conditions: in vivo, 504 h
[22] = target: Fibroblast growth factor receptor 4 (Homo sapiens, UniProt P22455)
Description: Inhibition of human FGFR4 using poly (Glu,Tyr)4:1 as substrate incubated for 60 mins by ELISA

[23] = Volume of distribution in ICR mouse at 2 mg/kg, iv by LC-MS/MS analysis; type: ADME, organism-based; conditions: in vivo
[24] = target: Fibroblast growth factor receptor 3 (Homo sapiens, UniProt P22607); assay: Inhibition of human FGFR3 using poly (Glu,Tyr)4:1 as substrate incubated for 60 mins by ELISA
[25] = Antiproliferative activity against human KATO III cells after 72 hrs by CCK-8 assay; type: functional, cell-based
[26] = target: T1, Vascular endothelial growth factor receptor 2; assay: Inhibition of recombinant human VEGFR2 using poly (Glu,Tyr)4:1 as substrate incubated for 60 mins by ELISA

T1 sequence (P35968 whole entry): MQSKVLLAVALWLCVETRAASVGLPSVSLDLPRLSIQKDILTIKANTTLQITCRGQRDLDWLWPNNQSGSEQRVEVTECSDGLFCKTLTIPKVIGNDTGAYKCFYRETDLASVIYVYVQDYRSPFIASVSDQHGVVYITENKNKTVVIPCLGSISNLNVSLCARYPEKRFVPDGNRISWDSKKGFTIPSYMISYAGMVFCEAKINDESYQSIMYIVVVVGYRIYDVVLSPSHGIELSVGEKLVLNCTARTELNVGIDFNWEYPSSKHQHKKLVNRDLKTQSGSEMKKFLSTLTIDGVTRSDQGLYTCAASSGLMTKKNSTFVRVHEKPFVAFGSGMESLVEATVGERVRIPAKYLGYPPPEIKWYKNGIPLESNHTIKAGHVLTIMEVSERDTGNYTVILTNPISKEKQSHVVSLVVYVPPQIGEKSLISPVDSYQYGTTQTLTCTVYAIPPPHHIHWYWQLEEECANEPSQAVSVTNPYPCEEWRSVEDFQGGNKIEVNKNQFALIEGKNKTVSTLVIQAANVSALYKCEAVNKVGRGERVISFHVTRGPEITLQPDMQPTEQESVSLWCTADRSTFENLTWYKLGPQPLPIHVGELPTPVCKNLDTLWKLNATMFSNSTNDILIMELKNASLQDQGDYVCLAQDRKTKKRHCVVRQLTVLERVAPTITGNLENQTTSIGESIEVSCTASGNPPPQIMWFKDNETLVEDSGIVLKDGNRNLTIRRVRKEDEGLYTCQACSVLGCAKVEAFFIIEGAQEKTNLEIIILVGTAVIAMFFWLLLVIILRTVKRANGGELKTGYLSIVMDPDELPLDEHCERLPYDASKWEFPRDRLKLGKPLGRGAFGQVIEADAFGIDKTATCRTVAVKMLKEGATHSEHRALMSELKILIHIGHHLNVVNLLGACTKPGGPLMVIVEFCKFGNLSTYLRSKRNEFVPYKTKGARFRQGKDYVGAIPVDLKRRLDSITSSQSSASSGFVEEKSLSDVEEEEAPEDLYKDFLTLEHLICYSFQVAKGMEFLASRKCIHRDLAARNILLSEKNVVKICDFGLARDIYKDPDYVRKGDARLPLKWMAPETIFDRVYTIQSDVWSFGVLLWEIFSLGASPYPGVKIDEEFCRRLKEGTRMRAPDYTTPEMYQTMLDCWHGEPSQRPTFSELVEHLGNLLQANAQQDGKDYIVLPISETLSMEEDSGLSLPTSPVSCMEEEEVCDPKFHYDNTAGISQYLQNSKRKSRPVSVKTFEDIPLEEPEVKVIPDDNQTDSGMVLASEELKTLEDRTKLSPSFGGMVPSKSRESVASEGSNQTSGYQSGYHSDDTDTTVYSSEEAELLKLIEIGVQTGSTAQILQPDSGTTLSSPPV
Sequence of Fibroblast growth factor receptor 1 (P11362 whole entry): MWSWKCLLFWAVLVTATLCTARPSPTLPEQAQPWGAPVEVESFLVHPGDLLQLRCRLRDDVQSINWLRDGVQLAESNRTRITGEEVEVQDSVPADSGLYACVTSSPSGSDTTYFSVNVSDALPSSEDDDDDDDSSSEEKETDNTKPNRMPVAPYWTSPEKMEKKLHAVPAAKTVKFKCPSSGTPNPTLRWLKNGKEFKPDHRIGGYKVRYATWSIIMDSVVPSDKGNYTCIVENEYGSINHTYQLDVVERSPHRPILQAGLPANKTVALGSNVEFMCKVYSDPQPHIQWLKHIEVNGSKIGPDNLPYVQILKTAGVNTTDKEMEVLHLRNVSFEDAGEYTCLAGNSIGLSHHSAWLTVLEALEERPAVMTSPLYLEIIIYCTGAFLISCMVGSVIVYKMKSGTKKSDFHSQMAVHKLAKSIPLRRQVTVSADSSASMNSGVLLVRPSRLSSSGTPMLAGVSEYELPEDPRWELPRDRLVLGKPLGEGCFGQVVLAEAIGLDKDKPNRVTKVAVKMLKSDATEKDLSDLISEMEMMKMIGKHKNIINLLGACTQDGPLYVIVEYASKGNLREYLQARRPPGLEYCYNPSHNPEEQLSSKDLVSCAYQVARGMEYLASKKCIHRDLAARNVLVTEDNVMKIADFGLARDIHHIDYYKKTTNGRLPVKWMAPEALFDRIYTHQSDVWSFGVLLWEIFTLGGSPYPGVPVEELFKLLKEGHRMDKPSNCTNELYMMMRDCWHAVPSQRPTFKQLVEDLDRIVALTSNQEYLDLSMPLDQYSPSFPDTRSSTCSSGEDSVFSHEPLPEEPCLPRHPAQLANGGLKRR
Sequence of Fibroblast growth factor receptor 3 (P22607 whole entry): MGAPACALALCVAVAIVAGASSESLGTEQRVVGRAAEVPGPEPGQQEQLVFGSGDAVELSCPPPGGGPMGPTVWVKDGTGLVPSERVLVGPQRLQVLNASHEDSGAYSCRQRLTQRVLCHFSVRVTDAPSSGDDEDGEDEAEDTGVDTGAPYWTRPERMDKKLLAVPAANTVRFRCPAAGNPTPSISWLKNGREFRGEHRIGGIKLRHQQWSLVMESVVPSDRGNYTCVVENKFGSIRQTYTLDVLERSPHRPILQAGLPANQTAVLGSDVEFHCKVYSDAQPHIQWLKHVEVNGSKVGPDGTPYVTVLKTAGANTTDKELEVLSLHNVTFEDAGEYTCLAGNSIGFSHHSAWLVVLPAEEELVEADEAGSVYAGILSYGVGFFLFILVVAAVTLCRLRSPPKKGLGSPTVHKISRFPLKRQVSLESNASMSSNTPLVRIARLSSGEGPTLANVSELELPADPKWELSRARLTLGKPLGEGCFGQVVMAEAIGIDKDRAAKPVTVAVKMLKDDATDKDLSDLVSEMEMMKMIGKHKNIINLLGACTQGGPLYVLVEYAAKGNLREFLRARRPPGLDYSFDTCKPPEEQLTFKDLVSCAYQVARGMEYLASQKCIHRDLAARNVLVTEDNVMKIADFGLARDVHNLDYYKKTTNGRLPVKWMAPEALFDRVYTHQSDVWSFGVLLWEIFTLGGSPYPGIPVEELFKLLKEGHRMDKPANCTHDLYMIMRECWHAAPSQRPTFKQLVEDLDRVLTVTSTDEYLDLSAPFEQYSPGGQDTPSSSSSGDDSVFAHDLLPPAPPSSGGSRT
Sequence of Fibroblast growth factor receptor 4 (P22455 whole entry): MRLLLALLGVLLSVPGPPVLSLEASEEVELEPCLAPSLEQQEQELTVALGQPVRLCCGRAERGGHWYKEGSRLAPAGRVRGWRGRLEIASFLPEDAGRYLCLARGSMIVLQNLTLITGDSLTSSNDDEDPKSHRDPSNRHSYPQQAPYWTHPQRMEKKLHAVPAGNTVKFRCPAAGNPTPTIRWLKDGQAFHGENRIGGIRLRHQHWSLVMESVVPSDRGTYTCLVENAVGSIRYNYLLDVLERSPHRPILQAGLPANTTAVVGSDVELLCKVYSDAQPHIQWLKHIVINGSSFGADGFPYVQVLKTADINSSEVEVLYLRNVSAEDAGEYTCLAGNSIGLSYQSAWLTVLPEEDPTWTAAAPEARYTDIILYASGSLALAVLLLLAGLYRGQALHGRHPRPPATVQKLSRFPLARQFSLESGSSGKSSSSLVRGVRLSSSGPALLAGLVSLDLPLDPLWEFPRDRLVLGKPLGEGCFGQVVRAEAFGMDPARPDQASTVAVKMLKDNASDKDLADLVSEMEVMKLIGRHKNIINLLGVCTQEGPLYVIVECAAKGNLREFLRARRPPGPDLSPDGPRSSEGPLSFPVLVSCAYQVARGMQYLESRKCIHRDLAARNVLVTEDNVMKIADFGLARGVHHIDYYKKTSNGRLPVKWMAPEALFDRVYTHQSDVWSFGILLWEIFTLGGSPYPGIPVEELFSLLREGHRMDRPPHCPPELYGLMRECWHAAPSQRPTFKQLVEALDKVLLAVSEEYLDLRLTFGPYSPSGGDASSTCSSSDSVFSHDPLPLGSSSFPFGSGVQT
Sequence of Fibroblast growth factor receptor 2 (P21802 whole entry): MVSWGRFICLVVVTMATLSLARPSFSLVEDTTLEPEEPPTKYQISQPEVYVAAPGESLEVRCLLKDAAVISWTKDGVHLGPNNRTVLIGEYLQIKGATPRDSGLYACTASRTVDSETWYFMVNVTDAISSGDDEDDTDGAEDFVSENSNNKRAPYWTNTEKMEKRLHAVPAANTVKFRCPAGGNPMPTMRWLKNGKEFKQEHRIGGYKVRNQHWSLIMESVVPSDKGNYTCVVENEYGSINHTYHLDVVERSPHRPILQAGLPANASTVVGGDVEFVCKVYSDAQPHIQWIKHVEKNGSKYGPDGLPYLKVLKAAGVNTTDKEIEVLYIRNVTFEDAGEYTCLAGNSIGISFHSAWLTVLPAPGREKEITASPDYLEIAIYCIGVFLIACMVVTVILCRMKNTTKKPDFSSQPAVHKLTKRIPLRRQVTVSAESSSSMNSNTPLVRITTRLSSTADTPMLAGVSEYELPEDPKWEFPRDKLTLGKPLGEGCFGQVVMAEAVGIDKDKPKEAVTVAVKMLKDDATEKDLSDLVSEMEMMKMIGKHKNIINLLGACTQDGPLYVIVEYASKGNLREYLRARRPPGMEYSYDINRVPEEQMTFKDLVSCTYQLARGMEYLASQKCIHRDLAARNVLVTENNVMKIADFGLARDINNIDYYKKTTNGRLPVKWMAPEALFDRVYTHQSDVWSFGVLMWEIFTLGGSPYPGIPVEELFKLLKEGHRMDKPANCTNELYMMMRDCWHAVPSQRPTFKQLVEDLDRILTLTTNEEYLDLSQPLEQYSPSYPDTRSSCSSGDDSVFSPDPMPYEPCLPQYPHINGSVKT

pIC50 [1]: 9.70 | pIC50 [2]: 6.61
SMILES: COc1cc(OC)c(Cl)c(-c2ccc3c(NC(=O)c4ccc(N5CCN(S(C)(=O)=O)CC5)cc4)n[nH]c3n2)c1Cl

pIC50 [1]: 8.06 | pIC50 [2]: 6.25
SMILES: COc1cc(OC)c(Cl)c(-c2ccc3c(NC(=O)c4ccc(N5CCCCC5)cc4)n[nH]c3n2)c1Cl

pIC50 [3]: 6.70 to 7.00
SMILES: CCN(CC)CCCCNc1ncc2cc(-c3cc(OC)cc(OC)c3)c(NC(=O)NC(C)(C)C)nc2n1 [PD-173074]

pIC50 [1]: 8.11 | pIC50 [2]: 6.06
SMILES: COc1cc(OC)c(Cl)c(-c2ccc3c(NC(=O)c4ccc(N5CCOCC5)cc4)n[nH]c3n2)c1Cl

pIC50 [1]: 8.21 | pIC50 [2]: 8.82
SMILES: COc1cc(OC)c(Cl)c(-c2ccc3c(NC(=O)c4ccc(N5CCN(C)CC5)nc4)n[nH]c3n2)c1Cl

pIC50 [1]: 8.16 | pIC50 [2]: 8.09
SMILES: COc1cc(OC)c(Cl)c(-c2ccc3c(NC(=O)c4ccc(C5CCN(C)CC5)cc4)n[nH]c3n2)c1Cl

pIC50 [1]: 8.39 | pIC50 [2]: 8.43
SMILES: COc1cc(OC)c(Cl)c(-c2ccc3c(NC(=O)c4ccc(N5CCN(C)CC5)s4)n[nH]c3n2)c1Cl

AUC(0-inf) [4]: 9010 ng·h/mL | bioavailability [6]: 72% | pIC50 [7]: 9.15 | clearance [8]: 16.6 mL/min/kg | Cmax [10]: 826 ng/mL | pIC50 [12]: > 9.70 | half-life [13]: 3.13 h | half-life [15]: 2.76 h | Cmax [16]: 1650 ng/mL | pIC50 [1]: 9.52 | AUC(0-inf) [19]: 2000 ng·h/mL | fraction unbound at 4 h, 5 µM [20]: 0.004 | pIC50 [22]: 7.28 | Vd [23]: 4.51 L/kg | pIC50 [24]: 8.70 | pIC50 [2]: 9.15
SMILES: COCCN1CCN(c2ccc(C(=O)Nc3n[nH]c4nc(-c5c(Cl)c(OC)cc(OC)c5Cl)ccc34)cc2)CC1
pIC50 [5]: > 9.70 | Activity [9]: Non-Toxic | pIC50 [11]: > 9.70 | inhibition in vivo at 12.5 mg/kg [14]: 54% | inhibition in vivo at 50 mg/kg [17]: 100% | TGI [18]: Dose-dependent effect | Activity [21]: Non-Toxic | pIC50 [25]: > 9.40

pIC50 [1]: 8.85 | pIC50 [2]: 8.85
SMILES: COc1cc(OC)c(Cl)c(-c2ccc3c(NC(=O)c4ccc(N5CCN(C(C)C)CC5)cc4)n[nH]c3n2)c1Cl

pIC50 [1]: 7.85 | pIC50 [2]: 7.56
SMILES: COc1cc(OC)c(Cl)c(-c2ccc3c(NC(=O)c4ccc(N5CCN(C)CC5)cc4Cl)n[nH]c3n2)c1Cl

pIC50 [1]: 7.78 | pIC50 [2]: 6.53
SMILES: COc1cc(OC)c(Cl)c(-c2ccc3c(NC(=O)c4ccc(N(C)C)cc4)n[nH]c3n2)c1Cl

pIC50 [1]: < 5.30
SMILES: COc1cc(OC)c(Cl)c(-c2ccc3c(NC(=O)c4ccc(N5CCN(C)CC5)cc4)nn(C)c3n2)c1Cl

pIC50 [1]: 7.13 | pIC50 [2]: 6.28
SMILES: COc1cc(N2CCN(C)CC2)ccc1C(=O)Nc1n[nH]c2nc(-c3c(Cl)c(OC)cc(OC)c3Cl)ccc12

pIC50 [1]: 9.52 | pIC50 [2]: 7.36
SMILES: COc1cc(OC)c(Cl)c(-c2ccc3c(NC(=O)c4ccc(N5CCN(C(C)=O)CC5)cc4)n[nH]c3n2)c1Cl

pIC50 [1]: 7.93 | pIC50 [2]: 8.85
SMILES: COc1cc(OC)c(Cl)c(-c2ccc3c(NC(=O)c4ccc(N5CCNCC5)cc4)n[nH]c3n2)c1Cl

pIC50 [1]: 8.11 | pIC50 [2]: 8.36
SMILES: COc1cc(OC)c(Cl)c(-c2ccc3c(NC(=O)c4ccc(N5CCN(C)CC5)cn4)n[nH]c3n2)c1Cl

pIC50 [1]: 9.70 | pIC50 [2]: 8.64
SMILES: COc1cc(OC)c(Cl)c(-c2ccc3c(NC(=O)c4ccc(N5CCN(C6CCC6)CC5)cc4)n[nH]c3n2)c1Cl

pIC50 [1]: 7.84 | pIC50 [2]: 6.72
SMILES: COc1cc(OC)c(Cl)c(-c2ccc3c(NC(=O)c4ccc(N5CCN(C)CC5)c(Cl)c4)n[nH]c3n2)c1Cl

AUC(0-inf) [4]: 3510 ng·h/mL | bioavailability [6]: 52.3% | clearance [8]: 31 mL/min/kg | Cmax [10]: 796 ng/mL | half-life [13]: 3.74 h | half-life [15]: 3.38 h | Cmax [16]: 802 ng/mL | pIC50 [1]: 9.52 | AUC(0-inf) [19]: 1080 ng·h/mL | fraction unbound at 4 h, 5 µM [20]: 0.005 | Vd [23]: 10 L/kg | pIC50 [2]: > 9.30
SMILES: COc1cc(OC)c(Cl)c(-c2ccc3c(NC(=O)c4ccc(N5CCN(CCO)CC5)cc4)n[nH]c3n2)c1Cl

pIC50 [1]: 8.06 | pIC50 [2]: 6.66
SMILES: COc1cc(OC)c(Cl)c(-c2ccc3c(NC(=O)c4ccc(N)cc4)n[nH]c3n2)c1Cl

pIC50 [26]: 6.44 | pIC50 [1]: 9.52 | pIC50 [2]: 8.77
SMILES: COc1cc(OC)c(Cl)c(-c2ccc3c(NC(=O)c4ccc(N5CCN(C)CC5)cc4)n[nH]c3n2)c1Cl

pIC50 [1]: 7.37 | pIC50 [2]: < 6.00
SMILES: COc1cc(OC)c(Cl)c(-c2ccc3c(NC(=O)c4ccccc4)n[nH]c3n2)c1Cl

pIC50 [1]: 7.98 | pIC50 [2]: 7.22
SMILES: COc1cc(OC)c(Cl)c(-c2ccc3c(NC(=O)c4cnc(N5CCN(C)CC5)cn4)n[nH]c3n2)c1Cl

pIC50 [1]: 8.48 | pIC50 [2]: 6.49
SMILES: COc1cc(OC)c(Cl)c(-c2ccc3c(NC(=O)c4ccc(N5CCN(C)CC5)cc4)n[nH]c3c2)c1Cl

pIC50 [1]: 8.41 | pIC50 [2]: 7.96
SMILES: COc1cc(OC)c(Cl)c(-c2ccc3c(NC(=O)c4ccc(N(C)CCN(C)C)cc4)n[nH]c3n2)c1Cl

AUC(0-inf) [4]: 4620 ng·h/mL | bioavailability [6]: 40.2% | clearance [8]: 18.1 mL/min/kg | Cmax [10]: 870 ng/mL | half-life [13]: 3.47 h | half-life [15]: 2.9 h | Cmax [16]: 500 ng/mL | pIC50 [1]: 8.14 | AUC(0-inf) [19]: 1840 ng·h/mL | fraction unbound at 4 h, 5 µM [20]: 0.004 | Vd [23]: 5.43 L/kg | pIC50 [2]: 8.89
SMILES: COc1cc(OC)c(Cl)c(-c2ccc3c(NC(=O)c4ccc(N5CCCN(C)CC5)cc4)n[nH]c3n2)c1Cl

pIC50 [1]: 9.22 | pIC50 [2]: 8.48
SMILES: C=CCN1CCN(c2ccc(C(=O)Nc3n[nH]c4nc(-c5c(Cl)c(OC)cc(OC)c5Cl)ccc34)cc2)CC1

pIC50 [1]: 9.30 | pIC50 [2]: 9.15
SMILES: CCN1CCN(c2ccc(C(=O)Nc3n[nH]c4nc(-c5c(Cl)c(OC)cc(OC)c5Cl)ccc34)cc2)CC1

pIC50 [26]: 6.26 | pIC50 [1]: 5.43 | pIC50 [2]: < 6.00
SMILES: COc1cc(OC)cc(-c2ccc3c(NC(=O)c4ccc(N5CCN(C)CC5)cc4)n[nH]c3n2)c1

pIC50 [1]: 7.85 | pIC50 [2]: 7.81
SMILES: COc1cc(C(=O)Nc2n[nH]c3nc(-c4c(Cl)c(OC)cc(OC)c4Cl)ccc23)ccc1N1CCN(C)CC1

AUC(0-inf) [4]: 9130 ng·h/mL | bioavailability [6]: 74.7% | clearance [8]: 16.1 mL/min/kg | Cmax [10]: 1880 ng/mL | pIC50 [12]: 8.92 | half-life [13]: 2.29 h | half-life [15]: 2.55 h | Cmax [16]: 1350 ng/mL | AUC(0-inf) [19]: 2080 ng·h/mL | fraction unbound at 4 h, 5 µM [20]: 0.007 | Vd [23]: 3.18 L/kg | pIC50 [2]: 7.42
SMILES: COc1cc(CCc2cc(NC(=O)c3ccc(N4C[C@@H](C)N[C@@H](C)C4)cc3)n[nH]2)cc(OC)c1 [FEXAGRATINIB]
pIC50 [5]: 9.22 | pIC50 [11]: > 9.70 | inhibition in vivo at 12.5 mg/kg [14]: 77.1% | pIC50 [25]: 7.69
